Data: article PMC12526004, “Tiliroside Suppresses Uric Acid Production in Hepatocytes and Attenuates Purine-Induced Hyperuricemia in Male ICR Mice” (Molecules, 2025)

Columns and labels:
AML12 hepatocytes = assay: UA production by AML12 cells stimulated with UA precursors; assay type: cell-based; details: for maximum reduction of UA production: guanosine + inosine (GI mixture) 100 µM each, 2 h, vs control (0 µM); for UA production: UA precursor xanthine
Protocol: AML12 hepatocytes used in this study were acquired from ATCC (CRL-2254), Manassas, VA, USA. AML12 cells were maintained in DMEM/F-12 (Life Technologies, Grand Island, NY, USA) supplemented with 10% (v/v) fetal bovine serum (FBS; Hyclone, Logan, UT, USA), recombinant human insulin (5 µg/mL), human transferrin (5 µg/mL), and dexamethasone (40 ng/mL), each obtained from FUJIFILM Wako, as well as selenium (3 ng/mL, Sigma-Aldrich) and penicillin–streptomycin mixed solution (100 U/mL penicillin and 100 µg/mL streptomycin, Nacalai Tesque), under a humidified atmosphere of 5% CO2 at 37 °C. Culture of AML12 hepatocytes and measurement of UA production were conducted following a previously reported protocol.Cells were seeded at a density of 1.0 × 10^5 cells per well in 24-well plates and cultured for 72 h in complete medium, followed by 24 h in serum-free DMEM/F-12. After serum deprivation, cells were rinsed once with calcium- and magnesium-free phosphate-buffered saline [PBS (–)] and incubated in 200 µL of balanced salt solution (BSS) containing […], 5 mM KCl, 1 mM MgCl2, 0.8 mM CaCl2, 25 mM NaHCO3, 1 mM NaH2PO4, 10 mM HEPES, and 5 mM glucose. […] The final concentration of DMSO in all samples was adjusted to 0.15%. After a 2-h incubation, 200 µL of the reaction mixture was collected for UA quantification. The UA concentration in BSS was used as an indicator of UA production. Subsequently, cells were washed with PBS (–) and lysed in 300 µL of buffer containing 50 mM Tris and 1 mM sodium phosphate (pH 7.5). Lysates were sonicated and centrifuged (12,000× g, 5 min, 4 °C), and the supernatants were used for protein quantification using the Pierce™ BCA Protein Assay Kit (Thermo Fisher Scientific Inc., Waltham, MA, USA). UA levels were measured using the uricase-based Uric Acid C-Test Wako (FUJIFILM Wako). UA production was expressed as nanomoles per 2 h per milligram of cellular protein (nmol/2 h/mg protein).

[1] = test system: mice with purine-induced hyperuricemia; assay: Plasma UA in mice with purine-induced hyperuricemia; assay type: in vivo, male ICR mice; details: three days; for effect on plasma UA increase / effect on plasma UA levels: vs hyperuricemic control
Protocol: The antihyperuricemic effect of tiliroside was evaluated using mice with purine-induced hyperuricemia, following a previously described procedure. […] The test compounds were suspended in 0.2 mL of 0.5% CMC-Na based on the average body weight of each group. The actual volume administered was adjusted according to the individual body weight of each mouse. Prior to each administration, the mice were fasted for four hours. The negative and hyperuricemic control groups received the vehicle (0.5% CMC-Na) alone. […] GMP and IMP were dissolved in 0.2 mL of PBS (–) based on the average body weight of all mice. The injection volume was similarly adjusted according to each mouse’s body weight. These injections were performed one hour after the final oral administration of the test compounds or vehicle. The negative control group received PBS (–) alone. […] The liver and kidneys were then excised. Blood samples were centrifuged at 5000× g for 10 min at 4 °C to obtain plasma, which was stored at −80 °C until analysis. UA concentrations in plasma and liver homogenates were determined using the uricase-based Uric Acid C-Test Wako. Protein concentrations in the liver samples were measured with the Pierce™ BCA Protein Assay Kit. Liver UA levels were expressed as milligrams per gram of liver protein (mg/g protein).

[2] = molecular target: xanthine oxidase (bovine milk-derived) (Bos taurus, UniProt P80457); assay: XO inhibition assay in vitro (UV absorbance at 295 nm); assay type: biochemical; details: xanthine substrate, 37 °C, mean of three independent experiments, read-out: IC50, direct XO inhibitory activity
xanthine oxidase (bovine milk-derived), sequence (P80457 whole entry): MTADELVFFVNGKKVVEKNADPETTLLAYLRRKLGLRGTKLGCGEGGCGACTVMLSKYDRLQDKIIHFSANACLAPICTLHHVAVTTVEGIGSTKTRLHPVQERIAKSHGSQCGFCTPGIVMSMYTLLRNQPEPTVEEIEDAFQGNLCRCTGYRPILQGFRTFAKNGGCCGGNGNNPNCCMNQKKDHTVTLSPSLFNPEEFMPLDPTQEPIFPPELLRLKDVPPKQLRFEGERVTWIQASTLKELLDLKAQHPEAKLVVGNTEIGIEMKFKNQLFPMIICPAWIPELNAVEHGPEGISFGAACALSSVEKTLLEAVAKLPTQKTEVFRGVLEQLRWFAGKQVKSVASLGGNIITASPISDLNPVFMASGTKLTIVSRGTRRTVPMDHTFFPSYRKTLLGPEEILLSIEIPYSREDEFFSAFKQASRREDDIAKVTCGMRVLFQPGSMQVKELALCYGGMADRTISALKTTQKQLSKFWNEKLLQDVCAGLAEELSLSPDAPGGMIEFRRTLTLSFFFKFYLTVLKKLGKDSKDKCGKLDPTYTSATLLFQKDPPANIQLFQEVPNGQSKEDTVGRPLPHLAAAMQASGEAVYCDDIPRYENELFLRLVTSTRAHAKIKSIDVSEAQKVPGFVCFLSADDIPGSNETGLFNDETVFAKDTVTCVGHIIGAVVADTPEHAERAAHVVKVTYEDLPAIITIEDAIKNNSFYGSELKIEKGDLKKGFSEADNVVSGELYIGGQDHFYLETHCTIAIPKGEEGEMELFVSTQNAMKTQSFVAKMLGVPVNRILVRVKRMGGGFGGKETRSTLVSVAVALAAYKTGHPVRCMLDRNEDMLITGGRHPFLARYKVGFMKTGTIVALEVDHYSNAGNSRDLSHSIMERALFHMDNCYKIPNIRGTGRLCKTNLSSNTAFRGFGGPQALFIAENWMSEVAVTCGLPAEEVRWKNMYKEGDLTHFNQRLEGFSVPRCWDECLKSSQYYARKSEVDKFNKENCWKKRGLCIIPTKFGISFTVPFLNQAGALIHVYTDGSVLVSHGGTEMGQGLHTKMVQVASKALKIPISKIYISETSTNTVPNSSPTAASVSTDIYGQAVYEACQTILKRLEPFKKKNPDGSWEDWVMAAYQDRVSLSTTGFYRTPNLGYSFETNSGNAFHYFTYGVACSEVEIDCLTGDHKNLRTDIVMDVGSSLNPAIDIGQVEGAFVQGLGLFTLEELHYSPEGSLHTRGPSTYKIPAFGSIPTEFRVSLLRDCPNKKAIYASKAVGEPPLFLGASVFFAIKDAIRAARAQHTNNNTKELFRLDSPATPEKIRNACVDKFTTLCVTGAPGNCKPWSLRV
Protocol: Prior to the assay, the compounds were freshly dissolved in a mixture of 30% dimethyl sulfoxide (DMSO; FUJIFILM Wako) and 70% phosphate buffer (100 mM, pH 7.5) to prepare test solutions at final concentrations ranging from 0 to 100 µM. In each well of a 96-well microplate, 50 µL of the test solution was mixed with 60 µL of buffer and 30 µL of xanthine oxidase (7.8 mU/mL, bovine milk-derived; Sigma-Aldrich). After preincubation at 37 °C for 10 min, the reaction was initiated by adding 60 µL of xanthine substrate (150 µM; FUJIFILM Wako). Absorbance at 295 nm was monitored for 30 min at 37 °C using a Spark 10 M microplate reader (Tecan Group Ltd., Männedorf, Switzerland). XO inhibitory activity was expressed as percentage inhibition, calculated using the formula Inhibition (%) = 100 × [1 − (B/A)], where A and B represent the absorbance increase in the absence and presence of the test compound, respectively. All measurements were performed in triplicate.
All experimental data are presented as mean ± SEM. […] Data from the in vitro XO inhibition assay are shown as mean values from three independent experiments. IC50 values were calculated by nonlinear regression analysis using dose–response curves generated from at least six concentrations of each compound. All statistical analyses were performed using GraphPad Prism version 10 (GraphPad Software, San Diego, CA, USA).

hepatic XO = molecular target: T1, hepatic XO (Mus musculus, UniProt Q00519); assay: Hepatic XO activity in hyperuricemic model mice; assay type: in vivo, male ICR mice; details: three days, mean ± SEM
T1 construct: 40 µL of liver homogenate was mixed with 30 µL of ice-cold 100 mM Tris-HCl buffer; from tissue; host or cells: liver of male ICR mice (homogenate supernatant)
T1 sequence (Q00519 whole entry): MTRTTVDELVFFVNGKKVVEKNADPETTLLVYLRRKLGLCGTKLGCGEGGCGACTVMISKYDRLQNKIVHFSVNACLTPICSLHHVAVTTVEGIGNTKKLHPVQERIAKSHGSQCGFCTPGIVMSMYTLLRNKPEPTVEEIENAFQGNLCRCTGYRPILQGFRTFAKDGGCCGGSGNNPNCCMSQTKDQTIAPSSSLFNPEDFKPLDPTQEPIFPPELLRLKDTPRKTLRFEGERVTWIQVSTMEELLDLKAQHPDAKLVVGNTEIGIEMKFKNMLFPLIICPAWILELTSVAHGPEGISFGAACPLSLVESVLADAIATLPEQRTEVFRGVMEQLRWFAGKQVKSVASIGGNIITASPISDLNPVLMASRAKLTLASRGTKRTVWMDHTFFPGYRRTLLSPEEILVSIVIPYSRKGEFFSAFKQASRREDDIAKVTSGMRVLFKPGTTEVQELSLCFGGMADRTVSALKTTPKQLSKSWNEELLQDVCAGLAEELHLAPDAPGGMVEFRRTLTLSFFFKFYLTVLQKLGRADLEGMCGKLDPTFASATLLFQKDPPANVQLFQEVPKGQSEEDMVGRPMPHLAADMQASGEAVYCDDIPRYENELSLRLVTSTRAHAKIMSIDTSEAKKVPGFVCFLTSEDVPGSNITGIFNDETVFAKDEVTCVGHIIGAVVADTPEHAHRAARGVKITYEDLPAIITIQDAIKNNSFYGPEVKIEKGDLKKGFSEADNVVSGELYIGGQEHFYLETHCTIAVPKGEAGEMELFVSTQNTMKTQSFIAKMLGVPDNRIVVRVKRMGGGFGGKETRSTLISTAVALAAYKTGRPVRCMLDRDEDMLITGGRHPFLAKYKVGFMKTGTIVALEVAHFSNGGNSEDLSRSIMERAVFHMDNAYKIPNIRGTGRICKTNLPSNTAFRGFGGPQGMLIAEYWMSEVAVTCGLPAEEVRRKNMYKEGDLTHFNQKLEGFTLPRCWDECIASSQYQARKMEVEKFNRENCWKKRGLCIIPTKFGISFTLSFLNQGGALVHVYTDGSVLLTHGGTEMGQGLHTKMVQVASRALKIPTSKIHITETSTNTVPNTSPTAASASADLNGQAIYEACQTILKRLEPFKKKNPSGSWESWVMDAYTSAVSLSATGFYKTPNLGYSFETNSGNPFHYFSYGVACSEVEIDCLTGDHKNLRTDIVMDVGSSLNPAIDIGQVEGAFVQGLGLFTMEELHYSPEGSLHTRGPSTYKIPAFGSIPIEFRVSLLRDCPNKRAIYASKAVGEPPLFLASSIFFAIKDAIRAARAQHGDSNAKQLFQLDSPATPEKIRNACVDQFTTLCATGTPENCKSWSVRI
Protocol: The test compounds were suspended in 0.2 mL of 0.5% CMC-Na based on the average body weight of each group. The actual volume administered was adjusted according to the individual body weight of each mouse. Prior to each administration, the mice were fasted for four hours. The negative and hyperuricemic control groups received the vehicle (0.5% CMC-Na) alone. On the third day of treatment, hyperuricemia was induced by intraperitoneal injection of guanosine monophosphate (GMP) and inosine monophosphate (IMP, both from Tokyo Chemical Industry, Tokyo, Japan), each at a dose of 300 mg/kg body weight, dissolved in PBS (–). GMP and IMP were dissolved in 0.2 mL of PBS (–) based on the average body weight of all mice. The injection volume was similarly adjusted according to each mouse’s body weight. These injections were performed one hour after the final oral administration of the test compounds or vehicle. The negative control group received PBS (–) alone. […] The liver and kidneys were then excised. Blood samples were centrifuged at 5000× g for 10 min at 4 °C to obtain plasma, which was stored at −80 °C until analysis.
Liver samples preparation was performed according to the methods previously described [27]. Each portion of the liver tissue was processed for a specific analysis. One portion was homogenized in ice-cold 100 mM Tris-HCl buffer (pH 7.5), followed by sonication and centrifugation at 10,000× g for 5 min at 4 °C. […]
Hepatic XO activity was assessed using a previously reported method [28], with slight modifications to accommodate 96-well microplate measurements [33]. […] The enzymatic reaction was initiated by adding 180 µL of xanthine solution (150 µM in the same buffer), and the absorbance at 295 nm was monitored at 37 °C for 30 min using a Spark 10 M microplate reader. UA formation was quantified based on a standard curve generated with known concentrations of UA. Protein content in the homogenates was determined using the Pierce™ BCA Protein Assay Kit, and XO activity was expressed as micromoles of UA produced per minute per milligram of protein (µmol UA/min/mg protein).

ABCC4 = assay: Renal mRNA expression, real-time quantitative PCR; assay type: in vivo, male ICR mice; details: 300 mg/kg oral, three days
Protocol: (§1) The antihyperuricemic effect of tiliroside was evaluated using mice with purine-induced hyperuricemia, following a previously described procedure. […] The test compounds were suspended in 0.2 mL of 0.5% CMC-Na based on the average body weight of each group. The actual volume administered was adjusted according to the individual body weight of each mouse. Prior to each administration, the mice were fasted for four hours. The negative and hyperuricemic control groups received the vehicle (0.5% CMC-Na) alone. […] GMP and IMP were dissolved in 0.2 mL of PBS (–) based on the average body weight of all mice. The injection volume was similarly adjusted according to each mouse’s body weight. These injections were performed one hour after the final oral administration of the test compounds or vehicle. The negative control group received PBS (–) alone. […] The liver and kidneys were then excised. Blood samples were centrifuged at 5000× g for 10 min at 4 °C to obtain plasma, which was stored at −80 °C until analysis. To assess renal gene expression, four mice per group were selected based on plasma UA levels approximating the group mean. Total RNA was extracted from kidney tissues of the negative control, hyperuricemic model, allopurinol-treated, and high-dose tiliroside-treated groups using the Trizol-chloroform method (Thermo Fisher Scientific). Reverse transcription was performed with 1 µg of RNA using iScript reverse transcriptase (Bio-Rad, Hercules, CA, USA). Quantitative PCR was conducted using the MyiQ2 real-time PCR system (Bio-Rad), with GAPDH as the reference gene.

ABCG2 = assay: Renal mRNA expression, real-time quantitative PCR; assay type: in vivo, male ICR mice; details: 300 mg/kg oral, three days
Protocol: as §1

GLUT9 = assay: Renal mRNA expression, real-time quantitative PCR; assay type: in vivo, male ICR mice; details: 300 mg/kg oral, three days
Protocol: as §1

XO = details: read-out: IC50, XO inhibition (previous report); cited from earlier work
[3] = parameters: method as in PMID 39830960; details: cited from earlier work

IC50 [2] [µM] | Hepatic XO Activity (hepatic XO; 50 mg/kg oral) [µmol UA/min/mg Protein] | Hepatic XO Activity (hepatic XO; 100 mg/kg oral) [µmol UA/min/mg Protein] | Hepatic XO Activity (hepatic XO; 300 mg/kg oral) [µmol UA/min/mg Protein] | Structure (SMILES) | maximum reduction of UA production (AML12 hepatocytes; 1 µM) | effect on plasma UA increase ([1]; 10 mg/kg body weight oral) | UA production (AML12 hepatocytes; 10 µM) [nmol/2 h/mg protein] | UA production (AML12 hepatocytes; 30 µM) [nmol/2 h/mg protein] | UA production (AML12 hepatocytes; 100 µM) [nmol/2 h/mg protein] | maximum reduction of UA production (AML12 hepatocytes; 100 µM) | effect on plasma UA levels ([1]; 50 mg/kg body weight oral) | effect on plasma UA levels ([1]; 100 mg/kg body weight oral) | effect on plasma UA increase ([1]; 300 mg/kg body weight oral) | lowering of plasma UA level ([1]; 300 mg/kg oral, hyperuricemic mice) | renal ABCC4 mRNA expression (ABCC4) | renal ABCG2 mRNA expression (ABCG2) | renal GLUT9 mRNA expression (GLUT9) | IC50 (XO) [µM] | toxicity and mutagenicity [3]
– | – | – | – | Oc1ncnc2[nH]ncc12 [Allopurinol, allopurinol, reference compound] | approximately 94.6% | significantly reduced | – | – | – | – | – | – | – | – | – | – | – | – | –
> 100 | 0.70 ± 0.08 | 0.82 ± 0.06 | 0.67 ± 0.07 | O=C(/C=C/c1ccc(O)cc1)OC[C@H]1O[C@@H](Oc2c(-c3ccc(O)cc3)oc3cc(O)cc(O)c3c2=O)[C@H](O)[C@@H](O)[C@@H]1O [Tiliroside, kaempferol-3-O-(6′′-p-coumaroyl)-glucoside] | – | – | 82.7 ± 2.4 | 45.4 ± 1.8 | 28.0 ± 1.2 | approximately 86.6% | failed to produce a statistically significant reduction | failed to produce a statistically significant reduction | significantly reduced | approximately 30% | did not affect | did not affect | did not affect | > 100 | non-toxic and non-mutagenic
